Two molecules from patent US8546090B2, “SIRT4 activities” (Massachusetts Institute of Technology, priority 2005, dated 2013) can be followed below.

One data set deals with MIN6 cells. The data set can be described thus: Insulin secretion assay in MIN6 cells (ELISA). The format is cell-based, mouse. On the procedure:
FIG. 4. The role of Sirt4 in insulin secretion. FIG. 4A. The levels of Sirt4 were reduced in MIN6 cells infected with virus that contained Sirt4 RNAi sequences compared to cells infected with pSUPER. FIG. 4B. Insulin secretion was measured from control or RNAi MIN6 cells. Cells were pre-incubated with KRB buffer containing 3 mM glucose, then cells were shifted to buffer containing either 3 mM (open bars) or 16.7 mM glucose (filled bars). Insulin in the buffer was measured by ELISA after a 45 min incubation at 37° C. FIG. 4C. Insulin remaining inside cells was measured at the end of the insulin secretion assays by ELISA.
FIG. 7. Elevated glutamate dehydrogenase activity contributes to increased insulin secretion in Sirt4 RNAi cells. FIG. 7A. MIN6 cells were co-infected with RNAi for Sirt4 and glutamate dehydrogenase, and protein levels were compared to control infections. FIG. 7B. Insulin secretion assays were performed in double-infected or control cells as described previously. FIG. 7C. Insulin secretion assays were performed in control or Sirt4 RNAi treated cells in the presence or absence of BCH, an activator of glutamate dehydrogenase.
MIN6 cells were plated in the wells of a 12-well plate at least 24-hours before secretion assays. […] Insulin concentration was measured by ELISA (Alpco Diagnostics; Windham, N.H.).
Background: ELISA stands for enzyme-linked immunosorbent assay.

Data set [1] relates to bovine recombinant glutamate dehydrogenase. The data set can be described thus: Glutamate dehydrogenase assay after incubation with Sirt4. It is filed as biochemical. On the procedure:
FIG. 6. Glutamate dehydrogenase inhibition by Sirt4. FIG. 6A. The enzymatic activity of glutamate dehydrogenase ([…]) was measured before (open bars, T=0) after a 60 min incubation (filled bars, T=60) at 37° C. with hSirt4-FLAG (50 ng) or a buffer control in the presence of 1 mM NAD^+. Experiments were replicated 3-5 times. FIG. 6B. Inhibition of glutamate dehydrogenase by Sirt4 requires 1 mM NAD^+. Glutamate dehydrogenase (50 mg) was incubated with Sirt4 at 37° C. in the presence (pink) or absence (blue) of 1 mM NAD^+. Aliquots (1 ml) were removed at T=0, 5, 15, 30, 60, or 120 min, and glutamate dehydrogenase activity was measured for each time point. FIG. 6C. The activity of glutamate dehydrogenase was measure in mitochondrial lysates (30 mg) from control or Sirt4 RNAi cells. Experiments were performed 3-5 times using cell lines from two separate infections.
Glutamate dehydrogenase (50 μg; Ultrapure from Sigma) was incubated with or without Sirt4 (10 ng) in […] of ADP-ribosylation buffer (50 mM Tris pH 8.0, 10 mM DTT, 150 mM NaCl) in the presence or absence of 1 mM NAD or 1 mM nicotinamide at 37° C. for the indicated times. Then, an aliquot of the reaction was assayed for glutamate dehydrogenase activity. Activity assays were performed at 25° C. using a BioSpec-1601 spectrophotometer (Shimadzu Scientific Instruments, Inc; Braintree, Mass.) at A340 based on the oxidation of NADH as described previously. Data was collected for 5-10 min. at 10 sec. intervals. At the end of each experiment, less than 10% of substrates had been depleted.
Sirt4 or a buffer control was incubated with bovine recombinant glutamate dehydrogenase for one hour in the presence of NAD. Then, the glutamate dehydrogenase activity was assessed by monitoring the disappearance of NADH (A340). […] To verify that this inhibition was dependent on the availability of NAD^+, we incubated Sirt4 with or without NAD^+ with glutamate dehydrogenase for various times. […]

As for `NC1(C(=O)O)CC2CCC1C2` (centres unmarked) [BCH], the “insulin secretion with BCH and 16.7 mM glucose compared to 16.7 mM glucose alone” value is “did not secrete more insulin” in the data set on MIN6 cells (Sirt4 RNAi treated MIN6 cells) and “enhanced insulin secretion” in the data set on MIN6 cells (control MIN6 cells).
Turning to “Sirt4: human Sirt4 with C-terminal FLAG, immunoprecipitated from 293T cells; ADP-ribosyltransferase”, the “inhibition of glutamate dehydrogenase activity” value in data set [1] (after incubating for 12 hours) is “more than 90%”; in data set [1] (within 2 hours, in the presence of NAD+), 50%. Moreover, the “enzymatic activity of glutamate dehydrogenase” value in data set [1] (incubated one hour in the presence of NAD, versus buffer control) is recorded as “significantly reduced”.
